As a reminder, the IC50 is the midpoint of a concentration-inhibition curve. High values mean a need for much substance, low ones inhibition by little substance.

For this assay, the system named is KB. Kind of assay: Cytotoxicity against human KB cells after 72 hrs by SRB assay. In kind it is functional, cell-based. In general terms: In SRB staining, fixed cells bind dye roughly in proportion to their protein.
Turning to `Cc1c2ccccc2nc2c1c1cc(NC(=O)[C@@H](N)CO)ccc1n2C`, 5.96 µM corresponded to half-maximal inhibition (IC50).

The values above are taken from ChEMBL document CHEMBL2146434, “Synthesis and biological evaluation of new amino acid and dipeptide derivatives of neocryptolepine as anticancer agents” (J Med Chem, 2012).
